The record followed here is ChEMBL document CHEMBL1201862, “PubChem BioAssay data set” (2004).

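Cells were grown in 96-well plates and exposed to each compound for 48 hours at five concentrations; endpoints were interpolated linearly between bracketing concentrations, or set to the highest concentration if not reached. The concentration for 50% growth inhibition is given as GI50.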 Calls of active or inactive are those of the source. Rule as the data show it: active = GI50 up to about 1.1 µM and inactive = higher.

Some test systems named below: A498; DLD-1; DMS-114; DMS-273; HOP-18; HT-29; M19-MEL; NCI/ADR-RES; SF-268; SF-539; SNB-78; XF498; M14; SR; TK-10; MCF7.
Common to all, as to test: growth of human tumour cells (NCI), 48 h

As to `CCCCCCCCCCCCCCCCOCC(COP(=O)([O-])OCC[N+](C)(C)C)OCCCCCCCCCCCCCCCC` (configuration not stated), the GI50 with A498, in the assay on DLD-1, in the assay with DMS-114, with DMS-273, in the assay on HOP-18 and with HT-29 was > 100 µM (inactive) each time. The GI50 with M19-MEL is > 100 µM (inactive); with NCI/ADR-RES, > 92.9 µM (inactive); in the assay with SF-268 it was > 100 µM (inactive); in the assay with SF-539, > 100 µM (inactive); in the assay with SNB-78 it was > 100 µM (inactive); with XF498, > 100 µM (inactive).
As to `CC(=O)Nc1ccc(C2=N/C(=C\c3ccc(Cl)c(Cl)c3)C(=O)O2)cc1`, the GI50 with A498 was > 100 µM (inactive); with DLD-1, 64 µM (inactive); with DMS-114 it was > 100 µM (inactive); in the assay on DMS-273, 80.4 µM (inactive); in the assay with HOP-18, > 100 µM (inactive); with HT-29 it was > 100 µM (inactive). Further, the GI50 in the assay with M14 was > 100 µM (inactive); in the assay with M19-MEL, 82.6 µM (inactive); in the assay on SF-268 it was > 100 µM (inactive); in the assay with SF-539, > 100 µM (inactive); in the assay on SNB-78, > 100 µM (inactive); in the assay on SR, 68.9 µM (inactive). For the same compound, the GI50 in the assay on TK-10 was > 100 µM (inactive); in the assay on XF498, 57.5 µM (inactive).
With `COc1cc2c(c(OC)c1OC)-c1[nH]ncc1CC2`, the GI50 with A498, in the assay on DLD-1, in the assay with DMS-114, with DMS-273, in the assay with HOP-18 and with HT-29 was > 100 µM (inactive) in each case. Moreover, the GI50 with M14, in the assay on M19-MEL, in the assay with SF-268, in the assay on SF-539, in the assay on SNB-78 and with SR was > 100 µM (inactive) in each case. The GI50 in the assay on TK-10 and in the assay on XF498 was > 100 µM (inactive) each time.
Regarding `Cc1c2[nH]c3ccc(Br)cc3c2c(C)c2nccc(O)c12`, the GI50 is 27.9 µM (inactive) in the assay on DLD-1; 17.7 µM (inactive) with DMS-114; 12.2 µM (inactive) in the assay with DMS-273; 10.8 µM (inactive) with HOP-18; 14.4 µM (inactive) in the assay with HT-29; 12.8 µM (inactive) in the assay on M14. For the same compound, the GI50 in the assay with M19-MEL was 14.6 µM (inactive); with SF-268 it was 14.8 µM (inactive); in the assay on SF-539 it was 15.6 µM (inactive); in the assay with SNB-78 it was 16.2 µM (inactive); in the assay on SR, 12.1 µM (inactive); in the assay on TK-10, 12.8 µM (inactive). In addition, the GI50 in the assay with XF498 was 16.1 µM (inactive).
Take `C=C(CCCO)[C@@H]1CC[C@@](C)(O)[C@H]1C`: the GI50 was > 10 µM (inactive) with DLD-1; > 100 µM (inactive) in the assay with DMS-114; > 100 µM (inactive) in the assay on DMS-273; > 100 µM (inactive) in the assay with HOP-18; > 100 µM (inactive) with HT-29; > 100 µM (inactive) in the assay with M19-MEL. Besides, the GI50 in the assay on SF-539, with SNB-78, in the assay on SR, in the assay on TK-10 and with XF498 was > 100 µM (inactive) in each case.
As to `CN(c1ccccc1)c1c(-c2ccccc2)c(=O)oc2c1ccc1occc12`, the GI50 in the assay on A498 is > 100 µM (inactive); with DLD-1 it was > 100 µM (inactive); in the assay on DMS-114, > 100 µM (inactive); in the assay with DMS-273, > 100 µM (inactive); with HOP-18 it was > 100 µM (inactive); with HT-29, > 95.7 µM (inactive). Also, the GI50 is > 100 µM (inactive) with M19-MEL; > 100000 nM (inactive) in the assay with MCF7; > 100 µM (inactive) with NCI/ADR-RES; > 100 µM (inactive) in the assay with SF-268; > 100 µM (inactive) with SF-539; > 100 µM (inactive) in the assay with SNB-78.
As for `COc1cc(/C=C2\C(=O)N(C(=O)Cc3ccccc3)N=C2C)cc(OC)c1OC`, the GI50 in the assay with DLD-1, with DMS-114, with DMS-273, in the assay with HOP-18, in the assay with HT-29 and in the assay on M14 was > 100 µM (inactive) each time. Moreover, the GI50 with M19-MEL, with SF-268, in the assay with SF-539, in the assay with SNB-78, in the assay with SR and with TK-10 was > 100 µM (inactive) in each case. For the same compound, in the assay on XF498, the GI50 was > 100 µM (inactive).
Take `O=C(CCC(=O)Nc1ccc(Cl)c(Cl)c1)CC(=O)c1ccc(Br)cc1`: the GI50 in the assay with A498, in the assay on DLD-1, in the assay on DMS-114, with HOP-18, with HT-29 and with M14 was > 100 µM (inactive) in each case. Further, the GI50 in the assay with M19-MEL, with SF-268, in the assay on SF-539, in the assay with SNB-78, in the assay on TK-10 and with XF498 was > 100 µM (inactive) throughout.
On to `COc1cc2c(cc1Oc1c(Oc3c(O)c(OC)cc4c3C(CC(C)C)N(C)CC4)c(OC)cc3c1C(CC(C)C)N(C)CC3)C(CC(C)C)N(C)CC2` (configuration not stated), for which the GI50 with A498 was 0.152 µM (active); with DLD-1, 1.76 µM (inactive); with DMS-114 it was 0.838 µM (active); in the assay with DMS-273, 1.18 µM (inactive); in the assay with HOP-18, 1.67 µM (inactive); with HT-29, 0.547 µM (active). The GI50 in the assay on M19-MEL was 0.515 µM (active); in the assay with MCF7, 632 nM (active); in the assay with NCI/ADR-RES, 2.38 µM (inactive); in the assay with SF-268, 1.51 µM (inactive); with SF-539, 0.376 µM (active); in the assay on SNB-78, 1.13 µM (inactive).
On to `C=C1CC(OC)(C(O)C(=O)N[C@H]2OCO[C@H]3C2O[C@H](C[C@@H](CO)OC)C(C)(C)C3OC)O[C@H](C)[C@@H]1C` (some centres not stated), for which the GI50 in the assay with A498, in the assay with DLD-1, with DMS-114, in the assay with DMS-273, with HOP-18 and in the assay on HT-29 was < 0.00931 µM (active) in each case. The GI50 in the assay with M19-MEL was < 0.00931 µM (active); with MCF7 it was < 9.31 nM (active); in the assay on NCI/ADR-RES, < 0.00931 µM (active); with SF-268 it was < 0.00931 µM (active); with SF-539 it was < 0.00931 µM (active); in the assay on XF498, < 0.00931 µM (active).
As to `Cn1c(=O)nc2n(-c3ccc(Cl)cc3Cl)c3ccccc3nc-2c1=O`, the GI50 is 3.29 µM (inactive) in the assay with DLD-1; 1.94 µM (inactive) with DMS-114; 11 µM (inactive) in the assay with HOP-18; 2.53 µM (inactive) in the assay on HT-29; 1.76 µM (inactive) in the assay on M14; 1.02 µM (active) in the assay with M19-MEL. Also, the GI50 was 25.9 µM (inactive) in the assay with SF-268; 6.58 µM (inactive) in the assay on SF-539; 14.6 µM (inactive) with SNB-78; 19.2 µM (inactive) with SR; 26.2 µM (inactive) in the assay on TK-10; 0.262 µM (active) in the assay with XF498.
